The first experiment concerns Escherichia coli ATCC 25922. Nature of the experiment: 50% growth inhibitory concentration (IC50) determination, Iso-Sensitest broth dilution. The note with it: Escherichia coli, ATCC25922, 16 h, strain Escherichia coli ATCC 25922; 10-point broth dilution, optical density at 600 nm over 16 h; read-out: Escherichia coli growth inhibition IC50. Format: cell-based. The method in brief:
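Growth was tracked as optical density at 600 nm every 20 minutes for 16 h at 35±2° C. Compounds from DMSO stocks were serially diluted twofold over 10 points (e.g. 50–0.097 μM final) in Iso-Sensitest broth. Inhibition computed in log-phase growth to give IC50.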
In general terms: In broth dilution the organism is exposed to a series of concentrations in liquid medium.
The IC50 is the concentration that inhibits the measured activity by half. For the compound `Cc1ncc(F)c2c1CC(CNCCC1CC(=O)N(c3ccc4c(n3)NC(=O)CO4)C1)C2` (stereo not drawn) [Example 417, 6-[4-[2-[(4-Fluoro-1-methyl-6,7-dihydro-5H-cyclopenta[c]pyridin-6-yl)methylamino]ethyl]-2-oxopyrrolidin-1-yl]-4H-pyrido[3,2-b][1,4]oxazin-3-one], the IC50 is less than 97.7 nM.
Still for that read-out and setting: the same measure for `NCCOc1ccc2c(c1Cl)CC(CNCCC1CN(c3ccc4c(n3)NC(=O)CO4)C(=O)O1)C2` (stereo not drawn) [Example 116, 6-[5-[2-[[5-(2-Aminoethoxy)-4-chloro-2,3-dihydro-1H-inden-2-yl]methylamino]ethyl]-2-oxo-1,3-oxazolidin-3-yl]-4H-pyrido[3,2-b][1,4]oxazin-3-one]: less than 97.7 nM; for `N[C@@H]1c2cc(OCC3(N)CC3)cc(Cl)c2C[C@H]1CN1CCC2(CC1)CN(c1ccc3c(n1)NC(=O)CO3)C(=O)O2` (racemic) [Example 274, 6-[2-Oxo-8-[[rac-1,2-trans-1-amino-6-[(1-aminocyclopropyl)methoxy]-4-chloro-2,3-dihydro-1H-inden-2-yl]methyl]-1-oxa-3,8-diazaspiro[4.5]decan-3-yl]-4H-pyrido[3,2-b][1,4]oxazin-3-one; formic acid]: less than 97.7 nM; for `NC1(COc2ccc3c(c2Cl)CC(NCCCC2CN(c4ccc5c(n4)NC(=O)CO5)C(=O)O2)C3)CC1` (stereo not drawn) [Example 119, 6-[5-[3-[[5-[(1-aminocyclopropyl)methoxy]-4-chloro-2,3-dihydro-1H-inden-2-yl]amino]propyl]-2-oxo-1,3-oxazolidin-3-yl]-4H-pyrido[3,2-b][1,4]oxazin-3-one; formic acid]: less than 97.7 nM.
The same measure, in the same setting: the same measure for `NC1c2cccc(Cl)c2CC1CNCCC1CN(c2ccc3c(n2)NC(=O)CO3)C(=O)O1` (single isomer, unassigned; isomer a) [Example 207, 6-[2-Oxo-5-[2-[[1,2-trans-1-amino-4-chloro-2,3-dihydro-1H-inden-2-yl]methylamino]ethyl]-1,3-oxazolidin-3-yl]-4H-pyrido[3,2-b][1,4]oxazin-3-one, Isomer A]: less than 97.7 nM; for `O=C1COc2ncc(N3CC(CCNCC4Cc5c(F)cnc(-c6cn[nH]c6)c5C4)OC3=O)nc2N1` (stereo not drawn) [Example 432, 6-[5-[2-[[4-fluoro-1-(1H-pyrazol-4-yl)-6,7-dihydro-5H-cyclopenta[c]pyridin-6-yl]methylamino]ethyl]-2-oxo-1,3-oxazolidin-3-yl]-4H-pyrazino[2,3-b][1,4]oxazin-3-one]: 120 nM.
On the same count and under the same terms, the figure for `Cc1nc(Cl)c2c(c1F)CC(CNCCC1CN(c3ccc4c(n3)NC(=O)CO4)C(=O)O1)C2` (stereo not drawn) [Example 256, 6-[5-[2-[(1-Chloro-4-fluoro-3-methyl-6,7-dihydro-5H-cyclopenta[c]pyridin-6-yl)methylamino]ethyl]-2-oxo-1,3-oxazolidin-3-yl]-4H-pyrido[3,2-b][1,4]oxazin-3-one] is less than 97.7 nM; for `N#Cc1cccc2c1CC(CN1CC(C3CN(c4cnc5c(n4)NC(=O)CO5)C(=O)O3)C1)C2` (stereo not drawn) [Example 76, 2-[[3-[2-oxo-3-(3-oxo-4H-pyrazino[2,3-b][1,4]oxazin-6-yl)-1,3-oxazolidin-5-yl]azetidin-1-yl]methyl]-2,3-dihydro-1H-indene-4-carbonitrile; formic acid] it is less than 97.7 nM.
Consider `N#Cc1cccc2c1CC(CN[C@H]1C[C@@H](C3CN(c4ccc5c(n4)NC(=O)CO5)C(=O)O3)C1)C2` (stereo partly drawn) [Example 96, 2-[[[cis-3-[2-oxo-3-(3-oxo-4H-pyrido[3,2-b][1,4]oxazin-6-yl)-1,3-oxazolidin-5-yl]cyclobutyl]amino]methyl]-2,3-dihydro-1H-indene-4-carbonitrile; formic acid], for which the IC50 amounted to 187 nM.
Turning to `Cc1c(F)cnc2c1CC(CNCCC1CN(c3ccc4c(n3)NC(=O)CO4)C(=O)O1)C2` (stereo not drawn) [Example 300, 6-[5-[2-[(3-fluoro-4-methyl-6,7-dihydro-5H-cyclopenta[b]pyridin-6-yl)methylamino]ethyl]-2-oxo-1,3-oxazolidin-3-yl]-4H-pyrido[3,2-b][1,4]oxazin-3-one], the IC50 stood at 156 nM.
Same read-out and setting: the same measure for `O=C1COc2ccc(N3CC(CNCCC4Cc5cccc(Cl)c5C4)OC3=O)nc2N1` (stereo not drawn) [Example 26, 6-[5-[ [2-(4-chloro-2,3-dihydro-1H-inden-2-yl)ethylamino]methyl]-2-oxo-1,3-oxazolidin-3-yl]-4H-pyrido[3,2-b][1,4]oxazin-3-one; formic acid]: less than 97.7 nM; for `O=C1COc2ccc(N3CC(CCCNC4Cc5ccnc(Cl)c5C4)OC3=O)nc2N1` (stereo not drawn) [Example 92, 6-[5-[3-[(1-chloro-6,7-dihydro-5H-cyclopenta[c]pyridin-6-yl)amino]propyl]-2-oxo-1,3-oxazolidin-3-yl]-4H-pyrido[3,2-b][1,4]oxazin-3-one]: 373 nM; for `N#Cc1cccc2c1C(O)C(CNCCC1CN(c3ccc4c(n3)NC(=O)CS4)C(=O)O1)C2` (racemic) [Example 152, rac-2,3-trans-3-hydroxy-2-[[2-[2-oxo-3-(3-oxo-4H-pyrido[3,2-b][1,4]thiazin-6-yl)-1,3-oxazolidin-5-yl]ethylamino]methyl]-2,3-dihydro-1H-indene-4-carbonitrile; formic acid]: 149 nM.
The same measure, in the same setting: the figure for `NC1c2cccc(Cl)c2CC1CNCCC1CN(c2ncc3c(n2)NC(=O)CO3)C(=O)O1` (racemic) [Example 290, 2-[5-[2-[(rac-1,2-trans-1-amino-4-chloro-2,3-dihydro-1H-inden-2-yl)methylamino]ethyl]-2-oxo-1,3-oxazolidin-3-yl]-8H-pyrimido[5,4-b][1,4]oxazin-7-one] is 261 nM; for `CNC(=O)COc1nc(C)c2c(c1C)CC(CNCCC1CN(c3cnc4c(n3)NC(=O)CO4)C(=O)O1)C2` (stereo not drawn) [Example 111, 2-[[1,4-dimethyl-6-[[2-[2-oxo-3-(3-oxo-4H-pyrazino[2,3-b][1,4]oxazin-6-yl)-1,3-oxazolidin-5-yl]ethylamino]methyl]-6,7-dihydro-5H-cyclopenta[c]pyridin-3-yl]oxy]-N-methylacetamide] it is 489 nM; for `O=C1COc2ncc(N3CC(CCNCC4Cc5cc(OCc6cc[nH]n6)cc(F)c5C4)OC3=O)nc2N1` (stereo not drawn) [Example 320, 6-[5-[2-[[4-Fluoro-6-(1H-pyrazol-3-ylmethoxy)-2,3-dihydro-1H-inden-2-yl]methylamino]ethyl]-2-oxo-1,3-oxazolidin-3-yl]-4H-pyrazino[2,3-b][1,4]oxazin-3-one; formic acid] it is 202 nM.
On to `N#Cc1cccc2c1CC(NCCCC1CN(c3cnc4c(n3)NC(=O)CO4)C(=O)O1)C2` (stereo not drawn) [Example 80, 2-[3-[2-oxo-3-(3-oxo-4H-pyrazino[2,3-b][1,4]oxazin-6-yl)-1,3-oxazolidin-5-yl]propylamino]-2,3-dihydro-1H-indene-4-carbonitrile], for which the IC50 was less than 97.7 nM.
The same measure, in the same setting: the figure for `Cc1nc(C)c2c(c1C)CC(CNCCC1CN(c3ccc4c(n3)NC(=O)CO4)C(=O)O1)C2` (stereo not drawn) [Example 93, 6-[2-oxo-5-[2-[(1,3,4-trimethyl-6,7-dihydro-5H-cyclopenta[c]pyridin-6-yl)methylamino]ethyl]-1,3-oxazolidin-3-yl]-4H-pyrido[3,2-b][1,4]oxazin-3-one] is less than 97.7 nM; for `NC1CC(NC2Cc3cccc(F)c3C2)CCC12CN(c1ccc3c(n1)NC(=O)CO3)C(=O)O2` (racemic) [Example 167, 6-[rac-5,6-cis-5,8-trans-6-amino-8-[(4-fluoro-2,3-dihydro-1H-inden-2-yl)amino]-2-oxo-1-oxa-3-azaspiro[4.5]decan-3-yl]-4H-pyrido[3,2-b][1,4]oxazin-3-one; 2,2,2-trifluoroacetic acid] it is 190 nM; for `N#Cc1c(OCCN2CCNCC2)ccc2c1CC(CNCCC1CN(c3ccc4c(n3)NC(=O)CO4)C(=O)O1)C2` (stereo not drawn) [Example 143, 2-[[2-[2-oxo-3-(3-oxo-4H-pyrido[3,2-b][1,4]oxazin-6-yl)-1,3-oxazolidin-5-yl]ethylamino]methyl]-5-(2-piperazin-1-ylethoxy)-2,3-dihydro-1H-indene-4-carbonitrile; formic acid] it is 833 nM.
On to `Cc1c(OCC2CNC(=O)CN2)nc(C#N)c2c1CC(CN1CCC3(CC1)CN(c1ccc4c(n1)NC(=O)CO4)C(=O)O3)C2` (stereo not drawn) [Example 220, 4-methyl-6-((2-oxo-3-(3-oxo-3,4-dihydro-2H-pyrido[3,2-b][1,4]oxazin-6-yl)-1-oxa-3,8-diazaspiro[4.5]decan-8-yl)methyl)-3-((5-oxopiperazin-2-yl)methoxy)-6,7-dihydro-5H-cyclopenta[c]pyridine-1-carbonitrile], for which the IC50 came to 319 nM.
Take `N#Cc1c(OCC2CCCN2)ccc2c1CC(CNCCC1CN(c3ccc4c(n3)NC(=O)CO4)C(=O)O1)C2` (stereo not drawn) [Example 141, 2-[[2-[2-oxo-3-(3-oxo-4H-pyrido[3,2-b][1,4]oxazin-6-yl)-1,3-oxazolidin-5-yl]ethylamino]methyl]-5-(pyrrolidin-2-ylmethoxy)-2,3-dihydro-1H-indene-4-carbonitrile; formic acid]: the IC50 came to 186 nM.
Still for that read-out and setting: the same measure for `Cc1ncc(F)c2c1CC(NCCCc1cn(-c3cnc4c(n3)NC(=O)CO4)c(=O)o1)C2` (stereo not drawn) [Example 302, 6-[5-[3-[(4-Fluoro-1-methyl-6,7-dihydro-5H-cyclopenta[c]pyridin-6-yl)amino]propyl]-2-oxo-1,3-oxazol-3-yl]-4H-pyrazino[2,3-b][1,4]oxazin-3-one; formic acid]: less than 97.7 nM.

The same experiment, now with this note: strain Escherichia coli ATCC 25922; 10-point broth dilution, optical density at 600 nm over 16 h; read-out: Escherichia coli growth inhibition IC50.
For the compound `N#Cc1cccc2c1CC(CNC1CCC3C(C1)OC(=O)N3c1ccc3c(n1)NC(=O)CO3)C2` (racemic) [Example 99, 2-[[[rac-3a,7a-cis-6,7a-trans-2-oxo-3-(3-oxo-4H-pyrido[3,2-b][1,4]oxazin-6-yl)-3a,4,5,6,7,7a-hexahydro-1,3-benzoxazol-6-yl]amino]methyl]-2,3-dihydro-1H-indene-4-carbonitrile; formic acid], the IC50 is 516 nM.

The values above are taken from patent publication US20230167127A1, “COMPOUNDS AND THEIR USE IN THE TREATMENT OF BACTERIAL INFECTION” (Hoffmann-La Roche Inc., priority 2020, published 2023).
